Data published in ChEMBL document CHEMBL1909046, “DrugMatrix in vitro pharmacology data”.

molecular target: Cannabinoid receptor 1 (Homo sapiens, UniProt P21554); assay type: cell membranes, Chem-1, Membrane; conditions: chem-1; further: in other assays of this panel Not Active means under 50% inhibition at 10 µM
Sequence (P21554 whole entry): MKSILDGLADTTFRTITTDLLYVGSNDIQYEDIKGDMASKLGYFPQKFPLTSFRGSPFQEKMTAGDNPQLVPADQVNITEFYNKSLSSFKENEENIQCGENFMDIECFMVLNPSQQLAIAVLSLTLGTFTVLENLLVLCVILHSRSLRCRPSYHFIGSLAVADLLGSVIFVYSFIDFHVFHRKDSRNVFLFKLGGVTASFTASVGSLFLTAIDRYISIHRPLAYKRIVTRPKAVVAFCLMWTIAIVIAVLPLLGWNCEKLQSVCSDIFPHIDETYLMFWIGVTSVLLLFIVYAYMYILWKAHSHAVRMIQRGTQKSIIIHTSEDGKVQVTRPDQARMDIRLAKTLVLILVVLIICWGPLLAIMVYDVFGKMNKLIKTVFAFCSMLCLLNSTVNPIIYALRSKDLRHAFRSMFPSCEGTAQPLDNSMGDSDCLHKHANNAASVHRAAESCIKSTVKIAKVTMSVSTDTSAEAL

Row | SMILES | IC50 | Ki
1 | COc1cc2c(c3oc(=O)c4c(c13)CCC4=O)[C@@H]1C=CO[C@@H]1O2 [AFLATOXIN] | Not Active | Not Active
2 | N=C(N)NC(=O)c1nc(Cl)c(N)nc1N [AMILORIDE] | Not Active | 
3 | Cc1cc(=O)n(-c2ccccc2)n1C [ANTIPYRINE] | Not Active | 
4 | CN1C(=O)COc2c(C(=O)NC3CN4CCC3CC4)cc(Cl)cc21 (centres undefined) [AZASETRON] | Not Active | 
5 | C[C@H]1C[C@H]2[C@@H]3CCC4=CC(=O)C=C[C@]4(C)[C@@]3(Cl)[C@@H](O)C[C@]2(C)[C@@]1(O)C(=O)CO [BECLOMETHASONE] | Not Active | 
6 | CCOC(=O)[C@H](CCc1ccccc1)N[C@H]1CCc2ccccc2N(CC(=O)O)C1=O [BENAZEPRIL] | Not Active | 
7 | Nc1c(CC(=O)O)cccc1C(=O)c1ccc(Br)cc1 [BROMFENAC] | Not Active | 
8 | CCCCN1CCCCC1C(=O)Nc1c(C)cccc1C.Cl (centres undefined) [BUPIVACAINE HYDROCHLORIDE] | Not Active | 

molecular target: T1, Cholecystokinin receptor type A (Homo sapiens, UniProt P32238); assay type: cell membranes, Membrane; conditions: 1321-n1; further: in other assays of this panel Not Active means under 50% inhibition at 10 µM
T1 sequence (P32238 whole entry): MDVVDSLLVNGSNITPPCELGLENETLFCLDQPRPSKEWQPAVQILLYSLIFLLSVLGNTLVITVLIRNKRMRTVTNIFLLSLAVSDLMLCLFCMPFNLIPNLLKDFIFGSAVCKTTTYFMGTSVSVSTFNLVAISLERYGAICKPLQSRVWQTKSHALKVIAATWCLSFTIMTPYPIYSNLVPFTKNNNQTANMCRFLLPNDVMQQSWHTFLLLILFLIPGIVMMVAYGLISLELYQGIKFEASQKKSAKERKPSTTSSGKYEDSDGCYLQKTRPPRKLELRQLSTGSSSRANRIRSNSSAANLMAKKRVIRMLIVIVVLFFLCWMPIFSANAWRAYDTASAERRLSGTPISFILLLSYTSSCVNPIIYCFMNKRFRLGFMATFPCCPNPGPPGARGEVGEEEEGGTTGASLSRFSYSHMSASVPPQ

Row | SMILES | IC50 | Ki
9 | COc1cc2c(c3oc(=O)c4c(c13)CCC4=O)[C@@H]1C=CO[C@@H]1O2 [AFLATOXIN] | Not Active | Not Active
10 | N=C(N)NC(=O)c1nc(Cl)c(N)nc1N [AMILORIDE] | Not Active | 
11 | Cc1cc(=O)n(-c2ccccc2)n1C [ANTIPYRINE] | Not Active | 
12 | CN1C(=O)COc2c(C(=O)NC3CN4CCC3CC4)cc(Cl)cc21 (centres undefined) [AZASETRON] | Not Active | 
13 | C[C@H]1C[C@H]2[C@@H]3CCC4=CC(=O)C=C[C@]4(C)[C@@]3(Cl)[C@@H](O)C[C@]2(C)[C@@]1(O)C(=O)CO [BECLOMETHASONE] | Not Active | 
14 | CCOC(=O)[C@H](CCc1ccccc1)N[C@H]1CCc2ccccc2N(CC(=O)O)C1=O [BENAZEPRIL] | Not Active | 
15 | Nc1c(CC(=O)O)cccc1C(=O)c1ccc(Br)cc1 [BROMFENAC] | Not Active | 
16 | CCCCN1CCCCC1C(=O)Nc1c(C)cccc1C.Cl (centres undefined) [BUPIVACAINE HYDROCHLORIDE] | Not Active | 

molecular target: D(3) dopamine receptor (Homo sapiens, UniProt P35462); assay: DRUGMATRIX: Dopamine D3 radioligand binding (ligand: [3H] Spiperone); assay type: cell membranes, CHO, Membrane; conditions: cho
Sequence (P35462 whole entry): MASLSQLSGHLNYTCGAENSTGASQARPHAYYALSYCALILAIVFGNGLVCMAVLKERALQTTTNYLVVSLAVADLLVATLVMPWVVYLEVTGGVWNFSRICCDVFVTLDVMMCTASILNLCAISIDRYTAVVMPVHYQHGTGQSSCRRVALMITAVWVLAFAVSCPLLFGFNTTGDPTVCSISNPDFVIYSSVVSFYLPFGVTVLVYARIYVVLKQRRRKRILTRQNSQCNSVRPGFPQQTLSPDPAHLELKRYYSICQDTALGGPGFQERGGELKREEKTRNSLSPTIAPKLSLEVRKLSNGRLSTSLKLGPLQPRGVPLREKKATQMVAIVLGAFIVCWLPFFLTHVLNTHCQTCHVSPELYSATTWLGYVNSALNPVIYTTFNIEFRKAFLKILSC

Row | SMILES | IC50 | Ki
17 | COc1cc2c(c3oc(=O)c4c(c13)CCC4=O)[C@@H]1C=CO[C@@H]1O2 [AFLATOXIN] | Not Active | Not Active
18 | N=C(N)NC(=O)c1nc(Cl)c(N)nc1N [AMILORIDE] | Not Active | 
19 | Cc1cc(=O)n(-c2ccccc2)n1C [ANTIPYRINE] | Not Active | 
20 | CN1C(=O)COc2c(C(=O)NC3CN4CCC3CC4)cc(Cl)cc21 (centres undefined) [AZASETRON] | Not Active | 
21 | C[C@H]1C[C@H]2[C@@H]3CCC4=CC(=O)C=C[C@]4(C)[C@@]3(Cl)[C@@H](O)C[C@]2(C)[C@@]1(O)C(=O)CO [BECLOMETHASONE] | Not Active | 
22 | CCOC(=O)[C@H](CCc1ccccc1)N[C@H]1CCc2ccccc2N(CC(=O)O)C1=O [BENAZEPRIL] | Not Active | 
23 | Nc1c(CC(=O)O)cccc1C(=O)c1ccc(Br)cc1 [BROMFENAC] | Not Active | 
24 | CCCCN1CCCCC1C(=O)Nc1c(C)cccc1C.Cl (centres undefined) [BUPIVACAINE HYDROCHLORIDE] | Not Active | 

test system: not listed separately; assay: DRUGMATRIX: Phorbol Ester radioligand binding (ligand: [3H] PDBu); assay type: cell membranes, Mus musculus, ICR, Brain, Membrane; conditions: Not Active = under 50% inhibition at 10 µM

Row | SMILES | IC50 | Ki
25 | COc1cc2c(c3oc(=O)c4c(c13)CCC4=O)[C@@H]1C=CO[C@@H]1O2 [AFLATOXIN] | Not Active | Not Active
26 | N=C(N)NC(=O)c1nc(Cl)c(N)nc1N [AMILORIDE] | Not Active | Not Active
27 | Cc1cc(=O)n(-c2ccccc2)n1C [ANTIPYRINE] | Not Active | Not Active
28 | CN1C(=O)COc2c(C(=O)NC3CN4CCC3CC4)cc(Cl)cc21 (centres undefined) [AZASETRON] | Not Active | Not Active
29 | C[C@H]1C[C@H]2[C@@H]3CCC4=CC(=O)C=C[C@]4(C)[C@@]3(Cl)[C@@H](O)C[C@]2(C)[C@@]1(O)C(=O)CO [BECLOMETHASONE] | Not Active | Not Active
30 | CCOC(=O)[C@H](CCc1ccccc1)N[C@H]1CCc2ccccc2N(CC(=O)O)C1=O [BENAZEPRIL] | Not Active | Not Active
31 | Nc1c(CC(=O)O)cccc1C(=O)c1ccc(Br)cc1 [BROMFENAC] | Not Active | Not Active
32 | CCCCN1CCCCC1C(=O)Nc1c(C)cccc1C.Cl (centres undefined) [BUPIVACAINE HYDROCHLORIDE] | Not Active | Not Active

test system: not listed separately; assay: DRUGMATRIX: Phosphodiesterase PDE4 enzyme inhibition (substrate: [3H]cAMP + cAMP); conditions: u-937; Not Active = under 50% inhibition at 10 µM

Row | SMILES | IC50 | Ki
33 | COc1cc2c(c3oc(=O)c4c(c13)CCC4=O)[C@@H]1C=CO[C@@H]1O2 [AFLATOXIN] | Not Active | Not Active
34 | N=C(N)NC(=O)c1nc(Cl)c(N)nc1N [AMILORIDE] | Not Active | Not Active
35 | Cc1cc(=O)n(-c2ccccc2)n1C [ANTIPYRINE] | Not Active | Not Active
36 | CN1C(=O)COc2c(C(=O)NC3CN4CCC3CC4)cc(Cl)cc21 (centres undefined) [AZASETRON] | Not Active | Not Active
37 | C[C@H]1C[C@H]2[C@@H]3CCC4=CC(=O)C=C[C@]4(C)[C@@]3(Cl)[C@@H](O)C[C@]2(C)[C@@]1(O)C(=O)CO [BECLOMETHASONE] | Not Active | Not Active
38 | CCOC(=O)[C@H](CCc1ccccc1)N[C@H]1CCc2ccccc2N(CC(=O)O)C1=O [BENAZEPRIL] | Not Active | Not Active
39 | Nc1c(CC(=O)O)cccc1C(=O)c1ccc(Br)cc1 [BROMFENAC] | Not Active | Not Active
40 | CCCCN1CCCCC1C(=O)Nc1c(C)cccc1C.Cl (centres undefined) [BUPIVACAINE HYDROCHLORIDE] | Not Active | Not Active

molecular target: T2, Caspase-1 (Homo sapiens, UniProt P29466); design: species or system Escherichia coli; conditions: not given;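 further: Caspase-1 enzyme inhibition assay with a peptide substrate; in other assays of this panel Not Active means under 50% inhibition at 10 µM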
T2 sequence (P29466 whole entry): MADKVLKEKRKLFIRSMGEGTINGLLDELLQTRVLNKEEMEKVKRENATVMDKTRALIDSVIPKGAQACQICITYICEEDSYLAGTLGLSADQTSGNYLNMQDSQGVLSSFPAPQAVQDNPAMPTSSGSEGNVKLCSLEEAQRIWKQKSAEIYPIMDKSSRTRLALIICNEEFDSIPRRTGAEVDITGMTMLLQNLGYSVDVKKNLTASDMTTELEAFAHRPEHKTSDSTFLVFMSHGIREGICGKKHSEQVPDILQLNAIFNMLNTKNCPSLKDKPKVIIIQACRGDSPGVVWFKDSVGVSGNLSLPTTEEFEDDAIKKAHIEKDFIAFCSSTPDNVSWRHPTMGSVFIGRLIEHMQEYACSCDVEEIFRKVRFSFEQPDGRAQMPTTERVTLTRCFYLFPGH

Row | SMILES | IC50 | Ki
41 | COc1cc2c(c3oc(=O)c4c(c13)CCC4=O)[C@@H]1C=CO[C@@H]1O2 [AFLATOXIN] | Not Active | Not Active
42 | N=C(N)NC(=O)c1nc(Cl)c(N)nc1N [AMILORIDE] | Not Active | 
43 | Cc1cc(=O)n(-c2ccccc2)n1C [ANTIPYRINE] | Not Active | 
44 | CN1C(=O)COc2c(C(=O)NC3CN4CCC3CC4)cc(Cl)cc21 (centres undefined) [AZASETRON] | Not Active | 
45 | C[C@H]1C[C@H]2[C@@H]3CCC4=CC(=O)C=C[C@]4(C)[C@@]3(Cl)[C@@H](O)C[C@]2(C)[C@@]1(O)C(=O)CO [BECLOMETHASONE] | Not Active | 
46 | CCOC(=O)[C@H](CCc1ccccc1)N[C@H]1CCc2ccccc2N(CC(=O)O)C1=O [BENAZEPRIL] | Not Active | 
47 | Nc1c(CC(=O)O)cccc1C(=O)c1ccc(Br)cc1 [BROMFENAC] | Not Active | 
48 | CCCCN1CCCCC1C(=O)Nc1c(C)cccc1C.Cl (centres undefined) [BUPIVACAINE HYDROCHLORIDE] | Not Active | 

molecular target: T3, Cytochrome P450 2A6 (Homo sapiens, UniProt P11509); conditions: bti-tn-5b1-4; further: in other assays of this panel Not Active means under 50% inhibition at 10 µM
T3 sequence (P11509 whole entry): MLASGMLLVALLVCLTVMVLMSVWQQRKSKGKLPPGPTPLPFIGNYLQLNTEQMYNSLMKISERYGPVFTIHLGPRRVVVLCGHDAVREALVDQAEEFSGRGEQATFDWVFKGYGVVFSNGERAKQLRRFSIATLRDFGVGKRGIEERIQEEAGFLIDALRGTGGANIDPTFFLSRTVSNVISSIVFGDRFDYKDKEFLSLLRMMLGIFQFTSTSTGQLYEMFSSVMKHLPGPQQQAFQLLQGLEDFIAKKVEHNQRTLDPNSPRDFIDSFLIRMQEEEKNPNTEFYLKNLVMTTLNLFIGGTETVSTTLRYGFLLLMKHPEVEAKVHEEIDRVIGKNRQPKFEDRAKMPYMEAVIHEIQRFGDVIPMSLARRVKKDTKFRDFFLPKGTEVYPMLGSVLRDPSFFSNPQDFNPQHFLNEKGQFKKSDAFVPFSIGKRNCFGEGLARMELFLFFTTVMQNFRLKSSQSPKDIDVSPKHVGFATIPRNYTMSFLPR

Row | SMILES | IC50 | Ki
49 | COc1cc2c(c3oc(=O)c4c(c13)CCC4=O)[C@@H]1C=CO[C@@H]1O2 [AFLATOXIN] | Not Active | Not Active
50 | N=C(N)NC(=O)c1nc(Cl)c(N)nc1N [AMILORIDE] | Not Active | Not Active
51 | Cc1cc(=O)n(-c2ccccc2)n1C [ANTIPYRINE] | Not Active | Not Active
52 | CN1C(=O)COc2c(C(=O)NC3CN4CCC3CC4)cc(Cl)cc21 (centres undefined) [AZASETRON] | Not Active | Not Active
53 | C[C@H]1C[C@H]2[C@@H]3CCC4=CC(=O)C=C[C@]4(C)[C@@]3(Cl)[C@@H](O)C[C@]2(C)[C@@]1(O)C(=O)CO [BECLOMETHASONE] | Not Active | Not Active
54 | CCOC(=O)[C@H](CCc1ccccc1)N[C@H]1CCc2ccccc2N(CC(=O)O)C1=O [BENAZEPRIL] | Not Active | Not Active
55 | Nc1c(CC(=O)O)cccc1C(=O)c1ccc(Br)cc1 [BROMFENAC] | Not Active | Not Active
56 | CCCCN1CCCCC1C(=O)Nc1c(C)cccc1C.Cl (centres undefined) [BUPIVACAINE HYDROCHLORIDE] | Not Active | Not Active
